The values below are quoted from earlier work in patent publication US6689455B2, “Method of producing hexagonal ferrite and magnetic recording medium using said hexagonal ferrite” (Fuji Photo Film Co., Ltd., priority 2001, dated 2004).

SMILES strings stand for the structures.

For this data set the following is noted: for pKa: value in parentheses after the compound name, acetic acid: 2 mol/l aqueous solution; for Organic matter pKa value: organic matter used to treat the ferrite powder, Tables 1 and 2; for pKa1: first dissociation of dicarboxylic acids.

For orientation: pKa means the pH at which an ionisable group is half protonated. As for `O=S(=O)(O)c1ccccc1` [benzenesulfonic acid], the pKa is 2.55.
In the case of `O=C(NO)c1ccccc1` [benzohydroxamic acid], the pKa is 2.3.
`O=P([O-])([O-])CN(CCN(CCN(CP(=O)([O-])[O-])CP(=O)([O-])O)CP(=O)([O-])O)CP(=O)([O-])O.[Na+].[Na+].[Na+].[Na+].[Na+].[Na+].[Na+]` [heptasodium diethylenetriamine-pentamethylene phosphonate]: the “Organic matter pKa value” was 1.8.
For `O=P(O)(O)Oc1ccccc1` [phenoxyphosphonic acid], the “Organic matter pKa value” is 2.0 and the pKa is given as 1.95.
On to `O=P(O)(O)c1ccccc1` [phenylphosphonic acid], for which the “Organic matter pKa value” was 1.8 and the pKa is 1.8.
With `O=C(O)c1ccccc1C(=O)O` [phthalic acid], the pKa1 was 2.75.
For the compound `NS(=O)(=O)O` [sulfaminic acid], the pKa is reported as 1.65.
For `O=C(O)c1ccc(C(=O)O)cc1` [terephthalic acid], the pKa1 was 3.54.
